Experimental findings from patent US6194451A, “Matrix metalloproteinase inhibitors” (Pharmacia & Upjohn S.p.A., priority 1997, dated 2001) are described below.

Broadly, the AUC is concentration integrated over time.

The series is described as follows: Pharmacokinetic Assay (Protocol C): plasma levels after i.v. and oral administration to rats. It is filed as in vivo, rat (male Sprague-Dawley). The settings on record: 15 mg/kg. The method, then: Male rats (Sprague-Dawley; body weight about 250-300 g) were acclimatized for about one week before the start of the study. […] Before treatment, rats were overnight fasted. For each compound to be assessed, three rats were treated intravenously (injection in the tail vein as a bolus) with a single dose of 15 mg/kg (as free base or free acid if needed) body weight. Other three rats were treated orally (single bolus dose by gastric gavage) with 15 mg/kg of the same compound. In same cases, according to the detection limit of each particular compound, and its availability in stock, these standard doses were modified as needed.
Blood samples were collected into syringes especially prepared for use with the cannulated animals via the SCV cannula. Under standard conditions, blood samples (0.2 mL) were transferred into heparinized tubes at the following times: 0 (pre-dose), 2, 4, 8, 16, 30, 45, 60, 90 min, 2, 4, 6, 8 and 24 h after iv administration; 0 (pre-dose), 5, 10, 30, 45, 60, 90 min, 2, 4, 6, 8, and 24 h after oral administration. Plasma was obtained immediately by centrifugation (about 10,000 rpm for 3 min) and stored at -80° C. till analysis. Plasma samples were assayed for parent drug concentrations using an appropriate analytical method. Under standard conditions, liquid chromatography--tandem mass spectrometry (LC/MS-MS) was used.
Non-compartmental pharmacokinetic calculations were performed with the aid of Pharm-NCA package (SIMED, France). Maximum plasma concentration, Cmax, and the corresponding time, tmax, were read as the coordinates of the highest raw-data point for individual plasma profiles. Terminal phase was evaluated by graphic judgement by eye; terminal rate constant, was calculated as the slope of the terminal linear portion of natural log-transformed plasma concentrations vs. time curve, obtained using linear regression. Terminal half-life, t1/2,z, was calculated as ln(2)/lz. The area under the plasma concentration-time curve was estimated by the linear trapezoidal rule up to the last measured concentration (AUC(0-tz)) and extrapolated to infinity assuming monoexponential decay, using the formula AUC=AUC(0-tz)+C(tz)/lz, where C(tz) is the measured concentration of the last point with detectable concentration. Following iv dosing, systemic clearance was obtained using the formula Cl=Dose/AUC. According to Protocol C, the pharmacokinetic in rats of some representative compounds within the present invention was evaluated. Significant pharmacokinetic data obtained in rats at a 15 mg/kg dose were as follows: […]

`CNC(=O)[C@@H](NC(=O)[C@H](CC(C)C)[C@](O)(CO)C(=O)NO)C(C)(C)C` [Example 3]: under “to our best knowledge”, the “plasma clearance compared with literature hydroxamic acid MMP inhibitors” value was “inferior to that reported for any hydroxamic acid MMP inhibitor disclosed in the literature”. This compound also had an AUC iv (iv) of 1.53 mg·min/mL. The half-life (rat, plasma, terminal half-life, read-out: t1/2,z (converted)) was 5.4 h. For the same compound, where the note is “rat, plasma, iv”, the clearance came out at 9.89 mL/min/kg. For the setting “rat, plasma, oral”, this compound gave an exposure (AUC) of 1100 ng·h/mL.
